Activity, Tmax and Emax data for two molecules are collected here from ChEMBL document CHEMBL5543126, “Combinatorial Ubiquitination REal-time PROteolysis (CURE-PROs): A Modular Platform for Generating Reversible, Self-Assembling Bifunctional Targeted Degraders” (J Med Chem, 2024).

Calls of active or inactive are those of the source. The calls are words filed in the database; no cut-off is given here.

What all share (assay type): cell-based
Assay [1] deals with T1, von Hippel-Lindau disease tumor suppressor/Bromodomain-containing protein 4 (Homo sapiens, UniProt O60885+P40337). The assay is described as follows: PROTAC activity at BRD4/VHL in human MCF7 cells assessed as induction of BRD4 degradation by measuring residual activity at 300 nM incubated for 24 hrs in presence of 300 nM BRD4 based ligand ((4S)-6-(4-chlorophenyl)-4-(2-(ethylamino)-2-oxoethyl)-1-methyl4Hbenzo[f][1,2,4]triazolo [4,3-a][1,4]diazepin-8-yl)boronic acid by Western blot based Combinatorial Ubiquitination Real-time PROteolysis analysis. (In general: In western blotting, separated proteins are transferred to a membrane and probed.)
T1 sequence (P40337 whole entry, looked up, other chains not shown): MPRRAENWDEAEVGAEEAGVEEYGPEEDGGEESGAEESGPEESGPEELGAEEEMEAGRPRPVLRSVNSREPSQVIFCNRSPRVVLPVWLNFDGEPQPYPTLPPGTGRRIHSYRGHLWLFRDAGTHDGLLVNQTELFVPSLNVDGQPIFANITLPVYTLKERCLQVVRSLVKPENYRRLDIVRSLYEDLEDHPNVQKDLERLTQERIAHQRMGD

For assay [2], the target named is T1, von Hippel-Lindau disease tumor suppressor/Bromodomain-containing protein 4. Kind of assay: PROTAC activity at BRD4/VHL in human MCF7 cells assessed as induction of BRD4 degradation by measuring residual activity at 300 nM incubated for 24 hrs in presence of 1 uM BRD4 based ligand ((4S)-6-(4-chlorophenyl)-4-(2-(ethylamino)-2-oxoethyl)-1-methyl4Hbenzo[f][1,2,4]triazolo [4,3-a][1,4]diazepin-8-yl)boronic acid by Western blot based Combinatorial Ubiquitination Real-time PROteolysis analysis.

Assay [3] shares this target. Kind of assay: PROTAC activity at BRD4/VHL in human MCF7 cells assessed as induction of BRD4 degradation by measuring residual activity at 3 uM incubated for 24 hrs in presence of 300 nM BRD4 based ligand ((4S)-6-(4-chlorophenyl)-4-(2-(ethylamino)-2-oxoethyl)-1-methyl4Hbenzo[f][1,2,4]triazolo [4,3-a][1,4]diazepin-8-yl)boronic acid by Western blot based Combinatorial Ubiquitination Real-time PROteolysis analysis.

For assay [4] the target is unchanged. Kind of assay: PROTAC activity at VHL/BRD4 in HEK293 cells assessed as induction of BRD4 degradation by measuring degradation rate at 10 uM measured every 15 mins for 24 hrs in presence of BRD4 based ligand ((4S)-6-(4-chlorophenyl)-4-(2-(ethylamino)-2-oxoethyl)-1-methyl4Hbenzo[f][1,2,4]triazolo [4,3-a][1,4]diazepin-8-yl)boronic acid by HiBiT based Combinatorial Ubiquitination Real-time PROteolysis analysis. (The HiBiT peptide binds its large partner to form an active luciferase.)

Assay [5] shares this target. The assay is described as follows: PROTAC activity at VHL/BRD4 in HEK293 cells assessed as induction of BRD4 degradation by measuring Tmax at 10 uM measured every 15 mins for 24 hrs in presence of BRD4 based ligand ((4S)-6-(4-chlorophenyl)-4-(2-(ethylamino)-2-oxoethyl)-1-methyl4Hbenzo[f][1,2,4]triazolo [4,3-a][1,4]diazepin-8-yl)boronic acid by HiBiT based Combinatorial Ubiquitination Real-time PROteolysis analysis.

The target is the same in assay [6]. The assay is described as follows: PROTAC activity at VHL/BRD4 in HEK293 cells assessed as induction of BRD4 degradation by measuring Tmax at 0.3 uM measured every 15 mins for 24 hrs in presence of BRD4 based ligand ((4S)-6-(4-chlorophenyl)-4-(2-(ethylamino)-2-oxoethyl)-1-methyl4Hbenzo[f][1,2,4]triazolo [4,3-a][1,4]diazepin-8-yl)boronic acid by HiBiT based Combinatorial Ubiquitination Real-time PROteolysis analysis.

Assay [7] has the same target. The assay is described as follows: PROTAC activity at BRD4/VHL in human MCF7 cells assessed as induction of BRD4 degradation by measuring residual activity at 30 nM incubated for 24 hrs in presence of 100 nM VHL based ligand (2S,4R)-1-((S)-2-(2,3-dihydroxybenzamido)-3,3-dimethylbutanoyl)-4-hydroxy-N-(4-(4-methylthiazol-5-yl)benzyl)pyrrolidine-2-carboxamide by Western blot based Combinatorial Ubiquitination Real-time PROteolysis analysis.

The target is the same in assay [8]. Kind of assay: PROTAC activity at VHL/BRD4 in human MCF7 cells assessed as induction of BRD4 degradation at 10 uM incubated for 24 hrs in presence of VHL ligand based (2S,4R)-1-((S)-2-(2,3-dihydroxybenzamido)-3,3-dimethylbutanoyl)-4-hydroxy-N-(4-(4-methylthiazol-5-yl)benzyl)pyrrolidine-2-carboxamide by Western blot based Combinatorial Ubiquitination Real-time PROteolysis analysis.

Assay [9] shares this target. The assay is described as follows: PROTAC activity at VHL/BRD4 in HEK293 cells assessed as induction of BRD4 degradation by measuring maximal level of degradation at 0.3 uM measured every 15 mins for 24 hrs in presence of VHL based ligand (2S,4R)-1-((S)-2-(2,3-dihydroxybenzamido)-3,3-dimethylbutanoyl)-4-hydroxy-N-(4-(4-methylthiazol-5-yl)benzyl)pyrrolidine-2-carboxamide by HiBiT based Combinatorial Ubiquitination Real-time PROteolysis analysis.

For assay [10] the target is unchanged. Kind of assay: PROTAC activity at BRD4/VHL in human MCF7 cells assessed as induction of BRD4 degradation by measuring residual activity at 3 uM incubated for 24 hrs in presence of VHL based ligand (2S,4R)-1-((S)-2-(2,3-dihydroxybenzamido)-3,3-dimethylbutanoyl)-4-hydroxy-N-(4-(4-methylthiazol-5-yl)benzyl)pyrrolidine-2-carboxamide by Western blot based Combinatorial Ubiquitination Real-time PROteolysis analysis.

The target is the same in assay [11]. The assay is described as follows: PROTAC activity at VHL/BRD4 in HEK293 cells assessed as induction of BRD4 degradation by measuring maximal level of degradation at 3 uM measured every 15 mins for 24 hrs in presence of VHL based ligand (2S,4R)-1-((S)-2-(2,3-dihydroxybenzamido)-3,3-dimethylbutanoyl)-4-hydroxy-N-(4-(4-methylthiazol-5-yl)benzyl)pyrrolidine-2-carboxamide by HiBiT based Combinatorial Ubiquitination Real-time PROteolysis analysis.

The target is the same in assay [12]. The assay is described as follows: PROTAC activity at BRD4/VHL in human MCF7 cells assessed as induction of BRD4 degradation by measuring residual activity at 1 uM incubated for 24 hrs in presence of 1 uM VHL based ligand (2S,4R)-1-((S)-2-(2,3-dihydroxybenzamido)-3,3-dimethylbutanoyl)-4-hydroxy-N-(4-(4-methylthiazol-5-yl)benzyl)pyrrolidine-2-carboxamide by Western blot based Combinatorial Ubiquitination Real-time PROteolysis analysis.

The target is the same in assay [13]. Kind of assay: PROTAC activity at VHL/BRD4 in HEK293 cells assessed as induction of BRD4 degradation by measuring Tmax at 3 uM measured every 15 mins for 24 hrs in presence of VHL based ligand (2S,4R)-1-((S)-2-(2,3-dihydroxybenzamido)-3,3-dimethylbutanoyl)-4-hydroxy-N-(4-(4-methylthiazol-5-yl)benzyl)pyrrolidine-2-carboxamide by HiBiT based Combinatorial Ubiquitination Real-time PROteolysis analysis.

For assay [14] the target is unchanged. Kind of assay: PROTAC activity at BRD4/VHL in human MCF7 cells assessed as induction of BRD4 degradation by measuring residual activity at 30 nM incubated for 24 hrs in presence of 300 nM VHL based ligand (2S,4R)-1-((S)-2-(2,3-dihydroxybenzamido)-3,3-dimethylbutanoyl)-4-hydroxy-N-(4-(4-methylthiazol-5-yl)benzyl)pyrrolidine-2-carboxamide by Western blot based Combinatorial Ubiquitination Real-time PROteolysis analysis.

Assay [15] shares this target. Kind of assay: PROTAC activity at VHL/BRD4 in HEK293 cells assessed as induction of BRD4 degradation by measuring Tmax at 10 uM measured every 15 mins for 24 hrs in presence of VHL based ligand (2S,4R)-1-((S)-2-(2,3-dihydroxybenzamido)-3,3-dimethylbutanoyl)-4-hydroxy-N-(4-(4-methylthiazol-5-yl)benzyl)pyrrolidine-2-carboxamide by HiBiT based Combinatorial Ubiquitination Real-time PROteolysis analysis.

Consider `Cc1ncsc1-c1ccc(CNC(=O)[C@@H]2C[C@@H](O)CN2C(=O)[C@@H](NC(=O)c2cccc(O)c2O)C(C)(C)C)cc1`, for which the Activity came to 68% in assay [1], 38% in [2], 39% in [3] and 4.18 h⁻¹ in [4]. Moreover, the Tmax in assay [5] amounted to 22.2 h; in assay [6], 7.75 h.

As usually defined, the Emax is the size of the effect at its maximum, as opposed to the concentration needed. As for `CCNC(=O)C[C@@H]1N=C(c2ccc(Cl)cc2)c2cc(B(O)O)ccc2-n2c(C)nnc21`, the Activity worked out at 89% in assay [7], 73% in assay [10], 35% in assay [12] and 104% in [14]. For the same molecule, the outcome in assay [8] was Active. The figures for the Emax in [9] and in [11] were 47% and 93%, respectively. Moreover, the Tmax stood at 18 h in [13] and 22.2 h in assay [15].
